Reference: BindingDB's records for doi:10.1021/jm900597q (Gilead Sciences, 2009)

Assays:
[1] = biological target: Reverse transcriptase/RNaseH (Human immunodeficiency virus 1, UniProt Q72547); experiment: Fluorescence-Based RNase H Assay; settings: pH 8; 20 °C
[2] = biological target: T1, Ribonuclease H1 (Homo sapiens, UniProt O60930); experiment: Fluorescence-Based RNase H Assay; settings: pH 8; 20 °C
T1 sequence (O60930 whole entry): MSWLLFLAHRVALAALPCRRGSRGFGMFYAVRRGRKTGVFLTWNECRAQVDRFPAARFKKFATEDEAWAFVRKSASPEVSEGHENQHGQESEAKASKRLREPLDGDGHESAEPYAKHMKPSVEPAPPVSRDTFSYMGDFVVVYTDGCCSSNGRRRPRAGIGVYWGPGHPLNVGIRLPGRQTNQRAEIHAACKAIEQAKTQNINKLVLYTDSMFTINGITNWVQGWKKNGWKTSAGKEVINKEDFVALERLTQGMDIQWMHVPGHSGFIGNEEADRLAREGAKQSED

| IC50 [1] [µM] | IC50 [2] [µM] | Structure (SMILES) |
| --- | --- | --- |
| 0.66 | – | CC(C)c1ccc(O)c(=O)c(O)c1 [hydroxytropolone, 3] |
| 13 | > 100 | O=C(O)c1nc(-c2ccccc2)nc(O)c1O |
